Reference: US20240417410A1, “TRICYCLIC COMPOUNDS FOR THE TREATMENT OF CANCER” (Hoffmann-La Roche Inc., priority 2023, published 2024)

What was measured:
KRAS G12C-BRAF complex = KRAS G12C-BRAF complex (Homo sapiens (Human), UniProt P01116+P62937, G12C); assay: KRAS-BRAF with CYPA (500 nM) interaction assay (TR-FRET, Example 136); type: biochemical; settings: KRAS G12C-BRAF disruption
AGS cells (KRAS G12D) = assay: Cell viability assay (Cell Counting Kit-8, 3-day); type: cell-based, human; settings: Homo sapiens, 72 h, 72 hrs incubation
Outline: (§1)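 After overnight attachment, cells received compounds (0.5% DMSO) for 72 hrs; viability was then quantified with CCK-8, reading OD450 minus OD650, and IC50 values were obtained from a 4-parameter concentration-response fit.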

[1] = test system: NCI-H358 cells (KRAS G12C); assay: Cell viability assay (Cell Counting Kit-8, 3-day); type: cell-based, human; settings: Homo sapiens, NCI-H358, 72 h, NCI-H358, 72 hrs incubation
Outline: as §1

SW620 cells (KRAS G12V) = assay: Cell viability assay (Cell Counting Kit-8, 3-day); type: cell-based, human; settings: Homo sapiens, SW-620; SW620, 72 hrs incubation
Outline: as §1

[2] = test system: phosphorylation of ERK, KRAS G12D in AGS cells; assay: pERK inhibition assay; type: cell-based; settings: Homo sapiens, AGS, 4 h
Outline: (§2)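 Phospho-ERK quantified by in-cell ELISA with TMB read-out at OD450 following 4 h compound exposure (final 0.5% DMSO). Cell lines were SW620 (KRAS G12V), AGS (G12D) and NCI-H358 (G12C), grown in RPMI-1640 with 10% FBS. A 4-parameter sigmoidal model gave the IC50.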

[3] = test system: phosphorylation of ERK, KRAS G12C in NCI-H358 cells; assay: pERK inhibition assay; type: cell-based; settings: Homo sapiens, NCI-H358, 4 h
Outline: as §2

[4] = test system: phosphorylation of ERK, KRAS G12V in SW620; assay: pERK inhibition assay; type: cell-based; settings: Homo sapiens, SW-620, 4 h, SW620 cells
Outline: as §2

Chain of KRAS G12C-BRAF complex (P01116-2 other isoform, or with tags, fused parts or gaps G12C): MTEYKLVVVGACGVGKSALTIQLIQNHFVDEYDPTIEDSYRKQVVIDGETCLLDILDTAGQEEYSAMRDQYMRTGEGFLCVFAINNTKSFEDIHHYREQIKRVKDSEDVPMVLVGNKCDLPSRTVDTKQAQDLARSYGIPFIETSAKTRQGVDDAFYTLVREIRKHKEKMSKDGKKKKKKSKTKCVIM
Chain of KRAS G12C-BRAF complex (P62937 whole entry): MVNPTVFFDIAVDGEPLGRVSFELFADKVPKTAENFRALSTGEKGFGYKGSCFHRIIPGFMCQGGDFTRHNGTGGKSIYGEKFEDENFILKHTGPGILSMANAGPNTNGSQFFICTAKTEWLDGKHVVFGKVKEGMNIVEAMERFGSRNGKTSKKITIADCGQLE

Structure (SMILES)	IC50 (KRAS G12C-BRAF complex) [nM]	IC50 (AGS cells (KRAS G12D)) [nM]	IC50 [1] [nM]	IC50 (SW620 cells (KRAS G12V)) [nM]	IC50 [2] [nM]	IC50 [3] [nM]	IC50 [4] [nM]
CO[C@@H](C)c1ncc(N2CCN3CCCC[C@@H]3C2)cc1-c1c2c3cc(cc4c3n1CCC4)-c1csc(n1)C[C@H](NC(=O)[C@H]1[C@H](C)[C@@H]1C)C(=O)N1CCC[C@H](N1)C(=O)OCC(C)(C)C2 (atropisomer, axis not shown; (M)) [Example 101, (1r,2S,3R)-N-[(7S,13S)-(20M)-20-[5-[(9αR)-1,3,4,6,7,8,9,9a-octahydropyrido[1,2-a]pyrazin-2-yl]-2-[(1S)-1-methoxyethyl]-3-pyridyl]-17,17-dimethyl-8,14-dioxo-15-oxa-4-thia-9,21,30,31-tetrazahexacyclo[23.3.1.1^2,5.1^9,13.0^19,27.0^21,26]hentriaconta-1 (28),2,5 (31),19,25 (29),26-hexaen-7-yl]-2,3-dimethyl-cyclopropanecarboxamide]	5.4	6.9	1.8	0.3	2.6	0.9	0.2
CO[C@@H](C)c1ncc(N2CCN(C)CC2)cc1-c1c2c3cc(cc4c3n1CCC4)-c1csc(n1)C[C@H](NC(=O)[C@H]1C[C@@H]1C)C(=O)N1CCC[C@H](N1)C(=O)OCC(C)(C)C2 (atropisomer, axis not shown; (M)) [Example 2, (1S,2S)-N-[(7S,13S)-(20M)-20-[2-[(1S)-1-methoxyethyl]-5-(4-methylpiperazin-1-yl)-3-pyridyl]-17,17-dimethyl-8,14-dioxo-15-oxa-4-thia-9,21,30,31-tetrazahexacyclo[23.3.1.1^2,5.1^9,13.0^19,27.0^21,26]hentriaconta-1 (28),2,5 (31), 19,25 (29),26-hexaen-7-yl]-2-methyl-cyclopropanecarboxamide]	28.8	29.9	10.1	1.2	3	3.4	1.4
CO[C@@H](C)c1ncc(N2CCN(C)CC2)cc1-c1c2c3cc(cc4c3n1CCO4)-c1csc(n1)C[C@H](NC(=O)C1(C)CC1C)C(=O)N1CCC[C@H](N1)C(=O)OCC(C)(C)C2 (stereo partly drawn) [Example 55, N-[(7S,13S)-(20M)-20-[2-[(1S)-1-methoxyethyl]-5-(4-methylpiperazin-1-yl)-3-pyridyl]-17,17-dimethyl-8,14-dioxo-15,24-dioxa-4-thia-9,21,30,31-tetrazahexacyclo[23.3.1.1^2,5.1^9,13.0^19,27.0^21,26]hentriaconta-1 (29),2,5 (31), 19,25,27-hexaen-7-yl]-1,2-dimethyl-cyclopropanecarboxamide]	23.6	69.1	48.3	5.6	18.1	4.9	3.1
CO[C@@H](C)c1ncc(N2CCN(C)CC2)cc1-c1c2c3cc(cc4c3n1CC(C)(C)C4)-c1csc(n1)C[C@H](NC(=O)[C@H]1[C@H](C)[C@@H]1C)C(=O)N1CCC[C@H](N1)C(=O)OCC(C)(C)C2 (atropisomer, axis not shown; (M)) [Example 69, (1r,2S,3R)-N-[(7S,13S)-(20M)-20-[2-[(1S)-1-methoxyethyl]-5-(4-methylpiperazin-1-yl)-3-pyridyl]-17,17,23,23-tetramethyl-8,14-dioxo-15-oxa-4-thia-9,21,30,31-tetrazahexacyclo[23.3.1.1^2,5.1^9,13.0^19,27.0^21,26]hentriaconta-1 (28),2,5 (31), 19,25 (29),26-hexaen-7-yl]-2,3-dimethyl-cyclopropanecarboxamide]	35.7	75.4	19.2	4.4	11.3	1.5	1.5
